Measurements published in ChEMBL document CHEMBL3769371, “1-[(2E)-3-Phenylprop-2-enoyl]-1H-benzimidazoles as anticancer agents: synthesis, crystal structure analysis and binding studies of the most potent anticancer molecule with serum albumin” (Medchemcomm, 2015).

Experiments:
SN12C = test: Cytotoxicity against human SN12C cells assessed as cell growth at 10^-5 M after 48 hrs by SRB assay; assay type: functional; details: read-out: Activity
[1] = Cytotoxicity against human HCC2998 cells after 48 hrs by SRB assay; assay type: functional; details: HCC 2998, 48 h
[2] = Cytotoxicity against human LOXIMVI cells after 48 hrs by SRB assay; assay type: functional; details: LOX IMVI
[3] = Cytotoxicity against human UO31 cells assessed as cell growth at 10^-5 M after 48 hrs by SRB assay; assay type: functional; details: UO-31, 48 h, read-out: Activity
NCI-H460 = test: Cytotoxicity against human NCI-H460 cells after 48 hrs by SRB assay; assay type: functional; details: NCI-H460, 48 h
Albumin [4] = biological target: T1, Albumin (Homo sapiens, UniProt P02768); test: Binding affinity to human serum albumin at 0.25 to 2 uM at 303 K by fluorescence microscopic analysis in the absence of site probes; assay type: ADME; details: isolated protein
T1 sequence (P02768 whole entry): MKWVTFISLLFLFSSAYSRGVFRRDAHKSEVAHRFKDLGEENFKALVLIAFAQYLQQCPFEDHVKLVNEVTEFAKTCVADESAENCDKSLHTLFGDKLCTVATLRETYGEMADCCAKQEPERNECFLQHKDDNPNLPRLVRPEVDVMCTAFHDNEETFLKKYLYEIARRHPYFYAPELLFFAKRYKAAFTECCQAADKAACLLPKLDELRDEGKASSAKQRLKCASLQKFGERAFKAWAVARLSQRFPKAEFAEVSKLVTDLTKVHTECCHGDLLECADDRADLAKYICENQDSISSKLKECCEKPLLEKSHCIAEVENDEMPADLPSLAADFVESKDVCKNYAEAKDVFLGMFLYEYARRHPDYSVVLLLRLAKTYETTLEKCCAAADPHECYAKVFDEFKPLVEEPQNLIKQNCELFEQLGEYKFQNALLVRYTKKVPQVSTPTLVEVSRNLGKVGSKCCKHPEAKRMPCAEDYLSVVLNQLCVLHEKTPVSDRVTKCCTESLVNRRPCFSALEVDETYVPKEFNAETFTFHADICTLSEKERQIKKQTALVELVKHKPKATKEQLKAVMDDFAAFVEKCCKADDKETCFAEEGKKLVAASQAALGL

ACHN [5] = test: Cytotoxicity against human ACHN cells assessed as cell growth at 10^-5 M after 48 hrs by SRB assay; assay type: functional; details: read-out: Activity
[6] = Cytotoxicity against human HCT15 cells assessed as cell growth at 10^-5 M after 48 hrs by SRB assay; assay type: functional; details: HCT-15, 48 h, read-out: Activity
[7] = Cytotoxicity against human UACC62 cells after 48 hrs by SRB assay; assay type: functional; details: UACC-62, 48 h
[8] = Cytotoxicity against human RPMI8226 cells after 48 hrs by SRB assay; assay type: functional; details: RPMI-8226, 48 h
Albumin [9] = biological target: T1, Albumin; test: Binding affinity to human serum albumin assessed Stern-Volmer quenching constant at 0.25 to 2 uM at 298 K by fluorescence microscopic analysis; assay type: ADME; details: isolated protein
Albumin [10] = biological target: T1, Albumin; test: Binding affinity to human serum albumin assessed Stern-Volmer quenching constant at 0.25 to 2 uM at 308 K by fluorescence microscopic analysis; assay type: ADME; details: isolated protein
[11] = Cytotoxicity against human SF295 cells after 48 hrs by SRB assay; assay type: functional; details: SF-295, 48 h
[12] = Cytotoxicity against human IGROV1 cells after 48 hrs by SRB assay; assay type: functional; details: IGROV-1, 48 h
Albumin [13] = biological target: T1, Albumin; test: Binding affinity to human serum albumin at 0.25 uM at 303 K by fluorescence microscopic analysis in the presence of Co2+; assay type: ADME; details: isolated protein
[14] = Cytotoxicity against human HOP92 cells after 48 hrs by SRB assay; assay type: functional; details: HOP-92, 48 h
ACHN [15] = test: Cytotoxicity against human ACHN cells after 48 hrs by SRB assay; assay type: functional
[16] = Cytotoxicity against human LOXIMVI cells assessed as cell growth at 10^-5 M after 48 hrs by SRB assay; assay type: functional; details: LOX IMVI, read-out: Activity
K562 = test: Cytotoxicity against human K562 cells assessed as cell growth at 10^-5 M after 48 hrs by SRB assay; assay type: functional; details: K562, 48 h, read-out: Activity
[17] = Cytotoxicity against human OVCAR8 cells assessed as cell growth at 10^-5 M after 48 hrs by SRB assay; assay type: functional; details: OVCAR-8, 48 h, read-out: Activity
[18] = Antiproliferative activity against human TK10 cells at 10'5 M; assay type: functional, TK-10
MDA-MB-435 = test: Cytotoxicity against human MDA-MB-435 cells assessed as cell growth at 10^-5 M after 48 hrs by SRB assay; assay type: functional; details: MDA-MB-435, 48 h, read-out: Activity
[19] = Cytotoxicity against human SF268 cells assessed as cell growth at 10^-5 M after 48 hrs by SRB assay; assay type: functional; details: SF-268, 48 h, read-out: Activity
MCF7 = test: Cytotoxicity against human MCF7 cells after 48 hrs by SRB assay; assay type: functional; details: MCF7, 48 h
[20] = Cytotoxicity against human NCI-ADR-RES cells assessed as cell growth at 10^-5 M after 48 hrs by SRB assay; assay type: functional; details: read-out: Activity
NCI-H522 = test: Cytotoxicity against human NCI-H522 cells assessed as cell growth at 10^-5 M after 48 hrs by SRB assay; assay type: functional; details: NCI-H522, 48 h, read-out: Activity
[21] = Cytotoxicity against human HL-60(TB) cells after 48 hrs by SRB assay; assay type: functional; details: HL-60, 48 h
U-251 = test: Cytotoxicity against human U251 cells assessed as cell growth at 10^-5 M after 48 hrs by SRB assay; assay type: functional; details: U-251, 48 h, read-out: Activity
[22] = Cytotoxicity against human SKOV3 cells assessed as cell growth at 10^-5 M after 48 hrs by SRB assay; assay type: functional; details: SK-OV-3, 48 h, read-out: Activity
[23] = read-out: LC50 (the source's name)

## O=C(/C=C/c1ccccc1)n1c(-c2ccc(Cl)cc2)nc2ccccc21
SN12C
  growth at 10 µM: -48.5%
[1]
  GI50: 1.41 µM
  TGI: 2.78 µM
[1]; [23]
  CC50: 5.49 µM
[2]
  GI50: 1.6 µM
  TGI: 3.22 µM
[2]; [23]
  CC50: 6.5 µM
[3]
  growth at 10 µM: -39%
NCI-H460
  GI50: 1.96 µM
  TGI: 6.52 µM
NCI-H460; [23]
  CC50: 25.5 µM
Albumin [4]
  K: 5.68 ×10³ /mol
ACHN [5]
  growth at 10 µM: -49.9%
[6]
  growth at 10 µM: -24.8%
[7]
  GI50: 1.47 µM
  TGI: 3.42 µM
[7]; [23]
  CC50: 7.93 µM
[8]
  GI50: 0.61 µM
  TGI: 3.82 µM
[8]; [23]
  CC50: > 100 µM
Albumin [9]
  KSV: 1.37 ×10⁵ L/mol
Albumin [10]
  KSV: 1.14 ×10⁵ L/mol
[11]
  GI50: 2.1 µM
  TGI: 6.14 µM
[11]; [23]
  CC50: 42.5 µM
[12]
  GI50: 1.27 µM
  TGI: 2.88 µM
[12]; [23]
  CC50: 6.53 µM
Albumin [13]
  K: 4.09 ×10³ /mol
[14]
  GI50: 2.72 µM
  TGI: 5.17 µM
[14]; [23]
  CC50: 9.81 µM
ACHN [15]
  GI50: 1.17 µM
  TGI: 2.56 µM
ACHN [15]; [23]
  CC50: 5.62 µM
[16]
  growth at 10 µM: -82.9%
K562
  growth at 10 µM: 39.8%
[17]
  growth at 10 µM: -31.3%
[18]
  growth inhibition (GI): 81.42%
MDA-MB-435
  growth at 10 µM: -44.3%
[19]
  growth at 10 µM: -11.8%
MCF7
  GI50: 1.01 µM
  TGI: 9.92 µM
MCF7; [23]
  CC50: 55.5 µM
[20]
  growth at 10 µM: 10.8%
NCI-H522
  growth at 10 µM: -72.4%
[21]
  GI50: 1.4 µM
  TGI: 4.88 µM
[21]; [23]
  CC50: > 100 µM
U-251
  growth at 10 µM: -0.39%
[22]
  growth at 10 µM: 23.9%
